Source: patent publication US20240207414A1, “DISULFIDE-BASED PRODRUG COMPOUND” (Ludwig-Maximilians-Universitat Munchen, priority 2021, published 2024)

Tests used:
thioredoxin 2 (Trx2) = target: T1, thioredoxin 2 (Trx2) (Homo sapiens, UniProt Q99757); assay: Enzymatic activation assay: NADPH/TrxR/Trx2 system; format: biochemical; conditions: NADPH/TrxR plus Trx2, 37° C., 6 h
T1 sequence (Q99757 60-166): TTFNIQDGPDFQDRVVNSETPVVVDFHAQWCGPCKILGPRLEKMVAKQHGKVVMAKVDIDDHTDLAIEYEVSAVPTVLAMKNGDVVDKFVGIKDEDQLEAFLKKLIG
Excerpt: (§1) This assay (see FIG. 2) examined the resistance of disulfide-based reduction-triggered compounds to the major cellular enzymatic systems that maintain redox homeostasis and are capable of reducing disulfides, evaluated in a cell-free assay, to see if these compounds can be useful for selective enzyme-triggered release.
(§2) Assay conditions: A black 96-well plate with black bottom was charged with solutions of fluorophore-releasing reduction-triggered probes that are compounds of the invention (P1, P2) or that are not compounds of the invention and reveal the performance of prior art systems (X19) (50 μL; 40 μM in aq. TE buffer (pH 7.4) and 4 μL DMSO). […]
(§3) Data Representation: (F(t)-F^NADPH(t)) is the fluorescence intensity of the test solution at time t, from which is subtracted a background fluorescence level also at time t from a solution with NADPH (which itself is fluorescent, and is present in 10-fold higher concentration than the probe) and with the same protein mixture but without the probe. F^max(t) is the maximum possible fluorescence intensity value at time t, determined by incubation with TCEP (100 μM)) similarly as for the chemical reductant assay. (F(t)−F^NADPH(t))/F^max(t) thus gives the timecourse of fluorescence signal, as a fraction of the maximum possible fluorescence signal. […]

[1] = Chemical reductant assay: DTT challenge (cell-free); format: physicochemical; conditions: aq. TE buffer pH 7.4, 37° C., 6 h
Excerpt: This assay (see FIG. 1) examined the stability of disulfide-based reduction-triggered compounds of the invention when exposed to monothiol reductants, primarily the major physiological cellular monothiol GSH, and dithiol reductants like the disulfide reductant dithiothreitol (DTT), as evaluated in a cell-free assay, to determine whether these compounds can be useful for selective release.
Assay Conditions: A black 96-well plate with black bottom was charged with solutions of fluorophore-releasing reduction-triggered probes that are compounds of the invention (P1, P2, P3, P4 and P5) or that are not compounds of the invention and reveal the performance of prior art systems (X19) (80 μL; 25 μM in aq. TE buffer (pH 7.4) and 1.25% vol DMSO). Solutions of challenge species chosen from the monothiol glutathione (GSH, 0.1-50 mM) and the dithiol reductant dithiothreitol (DTT, 0.1-50 mM) or phosphine reductant tris-(2-carboxyethyl) phosphine (TCEP); (20 μL; 1 mM in aq. TE buffer (pH 7.4) were added and the reaction mixtures were incubated at 37° C. for 6 h while measuring fluorescence intensity over time [F(t)] using a BMG Labtech FLUOstar Omega platereader (λexc=355 nm, Δem=530 nm for PQ-OH-releasing probes X19, P1 and P2; Δexc=485 nm, Δem=530 nm for MF-OH-releasing probes P3 and P4.
Data Representation: F^max is the maximum possible fluorescence increase corresponding to complete reduction-triggered cargo release, i.e. the fluorescence intensity increase from time zero to signal plateau under TCEP incubation PQ-OH-releasing probes. F(t)/F^max(t) thus gives the timecourse measurements of fluorescence intensity, as a fraction of the maximum possible fluorescence signal. F^sat is the endpoint fluorescence intensity increase for each condition, ie. F^sat=(F(6 h)). F^sat/F^max thus gives the assay endpoint fluorescence intensity increase, as a fraction of the maximum possible fluorescence signal. In the GSH timecourse measurements shown in FIG. 1, all datasets annotated with concentrations only (0.01-10 mM) refer to GSH challenges, while datasets for TCEP positive control (100 μM) and no-reductant control (blank) are shown for comparison. The dose-response plots show F^sat/F^max for the different ratios between probe and GSH or probe and DTT concentrations, with a logarithmic horizontal scale.

[2] = target: thioredoxin reductase 2 (TrxR2) (Homo sapiens, UniProt Q9NNW7); assay: Enzymatic activation assay: NADPH/TrxR2 without Trx; format: biochemical; conditions: NADPH/TrxR2, no Trx added, 37° C., 6 h
thioredoxin reductase 2 (TrxR2), sequence (Q9NNW7 37-524): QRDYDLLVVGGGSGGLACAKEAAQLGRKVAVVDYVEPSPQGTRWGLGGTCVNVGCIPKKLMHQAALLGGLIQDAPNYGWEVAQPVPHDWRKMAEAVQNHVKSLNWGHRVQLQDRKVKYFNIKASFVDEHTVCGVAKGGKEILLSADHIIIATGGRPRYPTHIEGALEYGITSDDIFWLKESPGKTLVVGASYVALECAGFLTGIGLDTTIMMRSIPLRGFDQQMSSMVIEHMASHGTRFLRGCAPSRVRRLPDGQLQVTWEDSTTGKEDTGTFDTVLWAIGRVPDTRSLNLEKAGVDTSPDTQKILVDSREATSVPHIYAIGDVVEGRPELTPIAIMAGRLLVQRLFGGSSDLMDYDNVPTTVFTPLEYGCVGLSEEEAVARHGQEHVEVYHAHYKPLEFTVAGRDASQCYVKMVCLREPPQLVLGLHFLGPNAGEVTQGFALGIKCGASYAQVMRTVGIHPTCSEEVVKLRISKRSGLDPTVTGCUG
Excerpt: as §1, §2, §3

[3] = target: T2, glutathione reductase (GR) (Homo sapiens, UniProt P00390); assay: Enzymatic activation assay: GR; format: biochemical; conditions: NADPH/GR
T2 sequence (P00390 44-522): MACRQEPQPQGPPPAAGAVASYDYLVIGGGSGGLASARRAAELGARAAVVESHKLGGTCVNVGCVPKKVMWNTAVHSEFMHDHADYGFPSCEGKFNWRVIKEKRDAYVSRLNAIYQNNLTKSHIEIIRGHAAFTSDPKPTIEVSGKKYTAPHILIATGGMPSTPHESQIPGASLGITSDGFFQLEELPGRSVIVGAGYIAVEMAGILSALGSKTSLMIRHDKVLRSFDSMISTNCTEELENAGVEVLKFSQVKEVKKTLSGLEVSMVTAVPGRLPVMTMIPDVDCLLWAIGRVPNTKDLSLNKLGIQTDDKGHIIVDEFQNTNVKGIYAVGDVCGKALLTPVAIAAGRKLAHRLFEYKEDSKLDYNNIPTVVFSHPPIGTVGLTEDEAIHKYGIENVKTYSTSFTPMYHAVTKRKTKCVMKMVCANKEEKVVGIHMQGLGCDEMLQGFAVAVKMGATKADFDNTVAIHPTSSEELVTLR
Excerpt: as §1, §2, §3

Row | SMILES | cargo release / processing by TrxR plus Trx2 (thioredoxin 2 (Trx2)) | activation / cargo release by dithiol reductant DTT [1] | cargo release / processing by TrxR2 [2] | cargo release / processing by oxidoreductase GR [3]
1 | O=C(Oc1ccc(Cl)cc1-c1nc2ccc(Cl)cc2c(=O)[nH]1)N1CCC[C@@H]2CSSC[C@H]21 (racemic) [Compound P1, 4-chloro-2-(6-chloro-4-oxo-3,4-dihydroquinazolin-2-yl)phenyl-(trans)-hexahydro-[1,2]dithiino[4,5-b]pyridine-1(2H)-carboxylate] | processed when additional high levels of Trx1 and Trx2 are added | efficiently activated by dithiol-type reductants | not processed | resist
2 | O=C(Oc1ccc(Cl)cc1-c1nc2ccc(Cl)cc2c(=O)[nH]1)N1CCC[C@@H]2CSSC[C@@H]21 (racemic) [Compound P2, 4-chloro-2-(6-chloro-4-oxo-3,4-dihydroquinazolin-2-yl)phenyl-(cis)-hexahydro-[1,2]dithiino[4,5-b]pyridine-1(2H)-carboxylate] | processed when additional high levels of Trx1 and Trx2 are added | efficiently activated by dithiol-type reductants | not processed | resist
